# Assay results taken from US20260364184A1, “COMPOUND BASED ON OXOISOINDOLINYL-SUBSTITUTED TETRAHYDROPYRIMIDINE-DIONE AND USE THEREOF” (GLUETACS THERAPEUTICS (SHANGHAI) CO., LTD., priority 2023, published 2026).
# Tests used:
# [1] = test system: Human gastric cancer cell line MGC803; test: Inhibition of MGC803 tumor cell proliferation (CellTiter luminescent viability); assay type: cell-based; settings: Table IC1, BTK inhibitor-based; MGC803, 96 hours; read-out: Inhibitory activity (IC50, nM) on tumor cell proliferation, MGC803
# Experimental: (§1) The tumor cells used herein were cultured in a cell culture medium listed in table 3 at 37 °C in an incubator with 5% CO2. Prior to experimentation, all cell lines used were correctly identified by STR profiling, and tested negative for mycoplasma contamination using a mycoplasma detection kit through routine screenings.
# (§2) The IC50 values of the compounds of the present disclosure (including the compounds in Table 1, Table 2, and Examples 1-468) were determined using the CellTiter-Meiluncell Luminescent Cell Viability Assay Kit from Dalian Meilun Biotech Co., Ltd. The detailed procedure is as follows: Tumor cells were seeded in 96-well cell culture plates at the densities specified in Table 4. On the following day, the test compounds of the present disclosure were subjected to serial dilution. The dilution can be performed according to one of the following two methods: • (1) The first dilution method: The test compounds of the present disclosure (including the compounds in Table 1, Table 2, and Examples 1-468) were subjected to 5-fold serial dilutions starting from a highest concentration of 2000 μM, resulting in a total of 9 concentrations from high to low (2000, 400, 80, 16, 3.2, 0.64, 0.128, 0.0256, 0.00512 μM). Subsequently, 0.5 μL of the test compound dilution was transferred into the 96-well plate containing the cells, with each well containing 100 μL of cell culture medium. […] Into the 96-well plate, the diluted test compounds and corresponding detection reagents were added, resulting in final test compound concentrations of 500 nM and 10 nM, respectively. The experimental procedure is described below using the diluted 2 μM test compound as an example.
# (§3) 0.5 μL of the aforementioned diluted compound of the present disclosure (including the compounds in Table 1, Table 2, and Examples 1-468) was added to the seeded cells in 100 μL of medium, yielding a final test compound concentration of 10 nM. After the cells were treated with the compounds of the present disclosure for a specified period, the cell viability assay reagent was added to the culture medium according to the kit's instructions to determine cell viability. […] All controls were treated using the same procedure as the compounds of the present disclosure. The growth inhibition curves for the compounds of the present disclosure were plotted using Prism GraphPad software, and the IC50 values were calculated therefrom.
# [2] = test system: Human T lymphocytic leukemia cell line (Jurkat); test: Inhibition of Jurkat cell proliferation (CellTiter luminescent viability); assay type: cell-based; settings: Table IC1, BTK inhibitor-based, 96 hours, read-out: Inhibitory activity (IC50, nM) on tumor cell proliferation, Jurkat
# [3] = test system: Human Multiple myeloma cell line (MM.1S); test: Inhibition of MM.1S cell proliferation (CellTiter luminescent viability); assay type: cell-based; settings: Table IC1, BTK inhibitor-based, 96 hours, read-out: Inhibitory activity (IC50, nM) on tumor cell proliferation, MM.1S
# Method in brief: (§4)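 Cells are seeded in 96-well plates, cultured at 37 °C, 5% CO2, and treated next day with 5-fold serial compound dilutions (stock series from 2000 μM; 0.5 μL into 100 μL medium). Viability is read by CellTiter-Meiluncell luminescence after the set exposure, and IC50 is taken from growth-inhibition curves.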
# JEKO-1 = test: Inhibition of JEKO-1 cell proliferation (CellTiter luminescent viability); assay type: cell-based, human; settings: Table IC1, BTK inhibitor-based; JEKO-1, 96 hours; read-out: Inhibitory activity (IC50, nM) on tumor cell proliferation, JEKO-1
# Experimental: as §1, §2, §3
# [4] = test system: Human non-small cell lung cancer cell line NCI-H1975; test: Inhibition of H1975 cell proliferation (CellTiter luminescent viability); assay type: cell-based; settings: Table IC1, BTK inhibitor-based; H1975, 96 hours; read-out: Inhibitory activity (IC50, nM) on tumor cell proliferation, H1975
# Method in brief: as §4
# BTK = biological target: T1, BTK (Homo sapiens, UniProt Q06187); test: Western blot degradation of BTK; assay type: cell-based; settings: Table IIA4, BTK inhibitor-based
# T1 construct: expression of target proteins in cells; endogenous in cells
# Experimental: (§5) Conventional Western blot assay was performed to evaluate the effects of the compounds of the present disclosure on the expression of target proteins in cells.
# (§6) (1) Cell Seeding and Protein Harvesting: The selected cells were processed according to the cell seeding procedure and protein harvesting procedure in Table II-2.
# (§7) (2) To the collected supernatant, 5×SDS sample loading buffer was added, followed by denaturation at 95 °C for 5 minutes. The denatured samples were then separated by SDS-PAGE electrophoresis on a polyacrylamide gel. Proteins were transferred to a nitrocellulose membrane (0.45 μm NC membrane), blocked with blocking buffer at room temperature for 1 hour, and subjected to antibody incubation and development procedures according to the antibody manufacturer's instructions (Cell Signaling Technology).
# (§8) Half-Maximal Degradation Concentration value (the drug concentration required for degrading proteins by 50%, abbreviated as DC50) reads method: comparing the grayscale values of Western blot bands from drug-treated samples with those from blank DMSO-treated controls, and identifying the drug concentration range at which the grayscale value is half that of the DMSO-treated control bands.
# DC50 values can be calculated using ImageJ software to measure grayscale values of Western blot bands from drug-treated samples. The concentration-response curve is fitted to estimate the drug concentration corresponding to half the grayscale value.
# Target protein remaining (%) refers to the percentage of target protein remaining in cells after treatment with protein degrader compounds.
# Calculation method for target protein remaining (%): Use ImageJ software to measure grayscale values of Western blot bands from drug (protein degrader)-treated samples. The grayscale value of drug-treated bands is divided by that of internal control protein bands, and the resulting quotient is normalized to obtain the relative percentage of remaining target protein after protein degrader treatment.
# Target protein degradation rate (%)=1−target protein remaining (%).
# [5] = biological target: T2, human Cereblon WT GST-tagged protein (CRBN) (Homo sapiens, UniProt Q96SW2); test: CRBN binding by HTRF (Cereblon binding kit)
# T2 construct: purchased CISBIO 64BDCRBNPEH
# Method in brief: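 GST-tagged human Cereblon WT was incubated 3 h at room temperature with compound, thalidomide-Re tracer and Eu anti-GST antibody. Final compound concentrations were 10 to 0.00064 µM (7 points) or 2 and 0.5 µM. Inhibition rate was calculated from HTRF 665/620 nm ratios versus solvent and blank controls.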
# ER = ER (Homo sapiens, UniProt P03372); test: Western blot degradation of ER; assay type: cell-based; settings: Table IIA3, ER inhibitor-based
# Experimental: as §5, §6, §7, §8
# (§9) DC50 values can be calculated using ImageJ software to measure grayscale values of Western blot bands from drug-treated samples. […]
# CDK2 = CDK2 (Homo sapiens, UniProt P24941); test: Western blot degradation of CDK2; assay type: cell-based; settings: hPBMC Cell; 24 hours
# Experimental: as §5, §6, §7, §8, §9
# T2 sequence (Q96SW2 whole entry): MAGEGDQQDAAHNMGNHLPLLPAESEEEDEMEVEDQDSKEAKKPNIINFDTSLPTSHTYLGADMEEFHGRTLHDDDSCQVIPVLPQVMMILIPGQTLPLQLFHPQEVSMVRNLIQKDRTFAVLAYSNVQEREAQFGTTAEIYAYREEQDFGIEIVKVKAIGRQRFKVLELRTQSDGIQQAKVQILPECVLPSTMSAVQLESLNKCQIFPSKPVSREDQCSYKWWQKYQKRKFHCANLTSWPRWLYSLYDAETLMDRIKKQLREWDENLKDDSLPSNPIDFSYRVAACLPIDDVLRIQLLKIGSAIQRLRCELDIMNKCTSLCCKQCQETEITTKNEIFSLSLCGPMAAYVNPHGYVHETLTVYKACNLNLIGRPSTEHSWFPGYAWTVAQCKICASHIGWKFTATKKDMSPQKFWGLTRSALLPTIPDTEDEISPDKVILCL
# T1 sequence (Q06187 whole entry): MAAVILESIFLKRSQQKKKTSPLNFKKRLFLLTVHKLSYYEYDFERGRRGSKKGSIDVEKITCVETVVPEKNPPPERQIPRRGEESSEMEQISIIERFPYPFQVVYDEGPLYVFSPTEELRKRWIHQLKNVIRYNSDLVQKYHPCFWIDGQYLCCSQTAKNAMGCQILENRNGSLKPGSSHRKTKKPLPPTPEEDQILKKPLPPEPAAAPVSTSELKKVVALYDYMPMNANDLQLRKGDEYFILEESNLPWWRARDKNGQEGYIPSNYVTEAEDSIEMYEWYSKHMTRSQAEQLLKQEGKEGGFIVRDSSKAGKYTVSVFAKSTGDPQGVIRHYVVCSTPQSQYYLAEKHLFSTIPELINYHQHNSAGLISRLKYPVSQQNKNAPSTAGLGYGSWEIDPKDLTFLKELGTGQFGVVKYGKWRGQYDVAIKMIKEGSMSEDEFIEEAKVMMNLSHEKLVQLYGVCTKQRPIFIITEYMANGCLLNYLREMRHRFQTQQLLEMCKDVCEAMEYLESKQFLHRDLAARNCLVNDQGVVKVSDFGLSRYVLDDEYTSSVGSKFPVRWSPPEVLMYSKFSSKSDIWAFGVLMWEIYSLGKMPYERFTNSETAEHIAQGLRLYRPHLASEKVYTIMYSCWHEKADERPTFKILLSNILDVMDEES
# ER, sequence (P03372 whole entry): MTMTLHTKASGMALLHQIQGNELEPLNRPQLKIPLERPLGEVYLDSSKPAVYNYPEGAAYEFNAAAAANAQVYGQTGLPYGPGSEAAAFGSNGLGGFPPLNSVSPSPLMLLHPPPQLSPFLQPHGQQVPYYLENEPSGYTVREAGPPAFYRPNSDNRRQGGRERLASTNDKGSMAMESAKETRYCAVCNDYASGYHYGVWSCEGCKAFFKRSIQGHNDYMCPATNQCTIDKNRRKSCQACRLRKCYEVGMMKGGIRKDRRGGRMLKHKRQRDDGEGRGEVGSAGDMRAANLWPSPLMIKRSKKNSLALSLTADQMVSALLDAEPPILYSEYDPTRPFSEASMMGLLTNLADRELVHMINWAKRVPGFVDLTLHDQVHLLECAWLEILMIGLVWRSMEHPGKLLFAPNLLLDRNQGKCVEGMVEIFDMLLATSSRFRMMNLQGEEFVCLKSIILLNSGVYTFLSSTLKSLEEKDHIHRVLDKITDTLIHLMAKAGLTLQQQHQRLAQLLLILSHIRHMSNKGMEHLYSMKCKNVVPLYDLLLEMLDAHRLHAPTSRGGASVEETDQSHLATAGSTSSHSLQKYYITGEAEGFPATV
# ER, sequence (Q96SW2 whole entry partner): as the sequence (Q96SW2 whole entry) above
compound,measurement,setting,value
"Nc1ncnc2c1c(-c1ccc(Oc3ccccc3)cc1)nn2C1CCN(Cc2ccc3c(c2)CN(N2CCC(=O)NC2=O)C3=O)CC1 [GT-05075, 1-(5-((4-(4-amino-3-(4-phenoxyphenyl)-1H-pyrazolo[3,4-d]pyrimidin-1-yl)piperidin-1-yl)methyl)-1-oxoisoindolin-2-yl)dihydropyrimidine-2,4 (1H,3H)-dione]",IC50,[1],50 to 100 nM
same,IC50,[2],50 to 100 nM
same,IC50,[3],10 to 50 nM
same,IC50,JEKO-1,50 to 100 nM
same,IC50,[4],50 to 100 nM
same,Degradation of substrate protein BTK (substrate protein remaining %),BTK,A (0%≤substrate protein remaining %≤80%)
"Nc1ncnc2c1c(-c1ccc(Oc3ccccc3)cc1)nn2C1CCN(CC2CCN(C3CCN(c4ccc5c(c4)C(=O)N(N4CCC(=O)NC4=O)C5=O)CC3)CC2)CC1 [GT-05096, 5-(4-((4-(4-amino-3-(4-phenoxyphenyl)-1H-pyrazolo[3,4-d]pyrimidin-1-yl)piperidin-1-yl)methyl)-[1,4′-bipiperidin]-1′-yl)-2-(2,4-dioxotetrahydropyrimidin-1(2H)-yl)isoindoline-1,3-dione]",Degradation of substrate protein BTK (substrate protein remaining %),BTK,A (0%≤substrate protein remaining %≤80%)
same,inhibition at 0.5 µM,"[5]; 0.5 μM, read-out: Inhibition Rate at 0.5 μM (%)",10 to 20%
same,inhibition at 2 µM,"[5]; 2 μM, read-out: Inhibition Rate at 2 μM (%)",53 to 60%
"O=C1CCN(N2C(=O)c3ccc(CN4CCN(c5ccc([C@@H]6c7ccc(O)cc7OC[C@@H]6c6ccccc6)cc5)CC4)cc3C2=O)C(=O)N1 [GT-04778, 2-(2,4-dioxotetrahydropyrimidin-1(2H)-yl)-5-((4-(4-((3S,4R)-7-hydroxy-3-phenylchroman-4-yl)phenyl)piperazin-1-yl)methyl)isoindoline-1,3-dione]",Degradation of substrate protein ER (substrate protein remaining %),ER,A (0%≤substrate protein remaining %≤80%)
"Cc1cc(S(=O)(=O)N2CCN(Cc3ccc4c(c3)C(=O)N(N3CCC(=O)NC3=O)C4=O)CC2)ccc1Nc1ncc(Br)c(Nc2cccc(F)c2C(N)=O)n1 [GT-06829, 2-((5-bromo-2-((4-((4-((2-(2,4-dioxotetrahydropyrimidin-1(2H)-yl)-1,3-dioxoisoindolin-5-yl)methyl)piperazin-1-yl)sulfonyl)-2-methylphenyl)amino)pyrimidin-4-yl)amino)-6-fluorobenzamide]",Degradation of substrate protein CDK2 (substrate protein remaining %),CDK2,A (0%≤substrate protein remaining %≤80%)
